Laboratory results taken from patent publication US11225507B2, “Conformation switchable antimicrobial peptides and methods of using the same” (priority 2017, dated 2022).

Columns and labels:
[1] = system: clinically isolated H. pylori strains, including clarithromycin-resistant J99A-7, J99A-11, J99C-8, and J99D-1; experiment: Bactericidal activity against clinically isolated H. pylori strains; type: cell-based, Helicobacter pylori; conditions: pH 3.0, 1 h incubation, 4.4 μM
Procedure: FIG. 3. HCT-AMPs effectively kill clinically isolated drug resistant H. pylori. (A) The bactericidal activity of PL2 against clinically isolated H. pylori strains. PL2, dissolved in the Tris-HCl buffer (pH 3.0), were incubated with clinically isolated strains in BB medium supplied with fresh urea, FBS and vancomycin (pH 3.0) for 1 h. The final concentration of PL2 was 4.4 μM. (B) The antibacterial activity of triple therapy against J99A-11 at pH 7.4 or 3.0. Concentrations of omeprazole, amoxicillin, and clarithromycin in OAC1 are 20.0 μM, 6.8 μM, and 1.9 μM, respectively; in OAC2 are 40.0 μM, 13.6 μM, and 3.8 μM, respectively; in OAC3 are 80.0 μM, 27.2 μM, and 7.6 μM, respectively (bars, left to right). (C) The antibacterial activity of omeprazole (0) and a combination of amoxicillin and clarithromycin (AC) against J99A-11 at pH 3.0. O1, O2, O3 represents the concentration of omeprazole at 20.0 μM, 40.0 μM, and 80.0 μM, respectively. AC1, AC2, AC3 represents the concentration of amoxicillin and clarithromycin at 6.8 μM and 1.9 μM, 13.6 μM and 3.8 μM, 27.2 μM and 7.6 μM, respectively.
H. pylori killing kinetics at various pHs. The killing kinetics of polypeptides were measured against H. pylori by counting the colony forming units (CFU) of alive bacteria with agar plating. […] The plates were incubated for 72 h in the incubator and the bacteria were counted for CFU. […]

[2] = Circular dichroism (CD) secondary structure of polypeptides at different pH; type: physicochemical
Procedure: The secondary structure of the polypeptides at different pH value was then investigated by circular dichroism (CD). […] Distortion of helical conformation was noted when the pH was adjusted back to neutral (FIG. 1C).
The MALLS detector was calibrated using pure toluene and can be used for the determination of the absolute molecular weights (MWs). The MWs of polymers were determined based on the dn/dc value of each polymer sample calculated offline by using the internal calibration system processed by the ASTRA V software (version 5.1.7.3, Wyatt Technology, Santa Barbara, Calif., USA). Circular dichroism (CD) measurements were carried out on a JASCO J-815 CD spectrometer. The polymer samples were prepared at concentrations of 4.4 μM. The solution was placed in a quartz cell with a path length of 0.10 cm. The zeta-potential of polypeptides was evaluated by Malvern Zetasizer. Infrared spectra were recorded on a Perkin Elmer 100 serial FTIR spectrophotometer calibrated with polystyrene film. Lyophilization was performed on a FreeZonelyophilizer (Labconco, Kansas City, Mo., USA). UV light was generated from an OmiCure S1000 UV lamp (EXFO, Mississauga, Canada).

H. pylori SS1 = experiment: Anti-H. pylori efficacy in vivo (infected C57BL/6J mice); design: species or system Helicobacter pylori; conditions: oral gavage once daily for 3 d, 2.6 μmol/kg
Procedure: Anti-H. pylori efficacy in vivo. […] For triple therapy, mice were first administered omeprazole (a proton pump inhibitor) through oral gavage at a dose of 400 μmol/kg, followed by a lag time of 30 min before administration of amoxicillin (68.0 μmol/kg) and clarithromycin (19.1 μmol/kg). PL2 and PDL2 in 5% (vol/vol) DMSO (both at 2.6 μmol/kg) were administered through oral gavage once daily for a consecutive 3 d. Water solution with 5% DMSO was served as negative control group. Forty-eight hours after the last administration, mice were killed and the stomach was removed from the abdominal cavity. The stomach was cut along the greater curvature, and the gastric content was removed and rinsed with PBS. The stomach sections were used for assessment of bacterial colonization. For bacterial colonization, a gastric tissue section was suspended in 1 mL PBS and homogenized for H. pylori recovery. The homogenate was serially diluted and spotted onto Columbia agar plate containing vancomycin (20 μg/mL), amphotericin (2 μg/mL), bacitracin (30 μg/mL) and nalidixic acid (10 μg/mL). The plates were then incubated at 37° C. under microaerobic conditions for 5 d, and bacterial colonies were enumerated and adjusted for dilutions.

[3] = Liposome dye leakage assay (ANTS/DPX efflux)
Procedure: Liposome dye leakage assay. ANTS (12.5 mM) and DPX (45 mM) were dissolved in Tris buffer (pH=7.4). To a clean round-bottom flask, appropriate volumes of lipid stocks were added to make up 1 mL of CHCl3 (3:1 POPE (1-palmitoyl-2-oleoyl-sn-glycero-3-phosphoethanolamine)/POPG (1-palmitoyl-2-oleoyl-sn-glycero-3-phospho-(1′-rac-glycerol) (sodium salt)) vesicles, POPE (130 μL, 25 mg/mL CHCl3) and POPG (115 μL, 10 mg/mL CHCl3) were used). The solvent was removed by a stream of nitrogen gas to obtain a thin lipid film, which was then hydrated by 1 mL of ANTS/DPX solution. The mixture was left to hydrate for 1 h, after which it was subjected to 10 freeze-thaw cycles (using dry ice/acetone to freeze and warm water to thaw). The suspension was extruded 20 times through a polycarbonate membrane with 400 nm pore diameter. The excess dye was removed using Sephadex G-50 column as the eluent. The dye-filled vesicle fractions were diluted 200 times with Tris buffer. This suspension (90 μL) was subsequently mixed with polypeptide stock solutions (10 μL) at various pH (pH 7.4 or 4.0) on a 96-well black microplate (Greiner, flat bottom). Tris buffer (10 μL, pH 7.4 or 4.0) and Triton-X (0.1% v/v, 10 μL, pH 7.4 or 4.0) were employed as the negative and positive controls at corresponding pH, respectively. After 30 min, the fluorescence intensity in each well was recorded using the microplate reader with excitation and emission wavelengths of 380 and 520 nm, respectively. The percentage of leaked […] dye in each well was determined as follows: leakage (%)=[(F−F0)/(FTX−F0)]×100%, where F is the fluorescence intensity recorded in the well, F0 is the intensity in the negative control well, and FTX is the intensity in the positive control well.

(PGA)18-r-(PHLG-MHH)20 [PL2]
bacterial strains killed [1]: over 90%
secondary structure (CD) ([2]; pH≤4.2): typical helical conformation
secondary structure (CD) ([2]; pH≥5.1): random coiled conformation
decrease of bacterial burden in the stomach as compared with the control group (H. pylori SS1): ~100 times
dye leakage from anionic liposomes ([3]; pH 4.0): great dye leakage
dye leakage from anionic liposomes ([3]; pH 7.4): minimal dye leakage
